The supplement of paper PMC4862054

What was measured:
Test in all cases: normalised viability (% of control), CellTiter-Blue; higher = more viable cells (about 100 = DMSO control)
Details in all cases: incubation time: 72 h
[1] = test system: MDA-MB-468
Protocol: (§1)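 DSRT, CellTiter-Blue viability, 72 h incubation. Signal is normalised to DMSO and benzethonium chloride controls. Value is the normalised response at dose 3.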

[2] = test system: MFM-223
Protocol: as §1

[3] = test system: HCC1937
Protocol: as §1

[4] = test system: DU-4475
Protocol: as §1

[5] = test system: CAL-85-1
Protocol: as §1

[6] = test system: Hs578T
Protocol: as §1

[7] = test system: BT-474
Protocol: as §1

[8] = test system: MDA-MB-436
Protocol: as §1

[9] = test system: CAL-120
Protocol: as §1

[10] = test system: MDA-MB-468; remark: listed apart in the source
Method in brief: (§2)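 Compound dissolved in 5 µl medium was pre-loaded into 384-well plates, and breast cancer cell lines in 20 µl suspension were seeded on top and incubated 72 h. After adding 2.5 µl CellTiter-Blue reagent for 2 h at 37 °C, fluorescence was read at 560/590 nm. Plates were normalised to vehicle (100) and a positive kill control (0), with Z'-factor quality control. Each value is normalised viability at a single listed concentration from the series.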

[11] = test system: MFM-223; remark: listed apart in the source
Method in brief: as §2

[12] = test system: CAL-148
Method in brief: as §2

[13] = test system: HCC1937; remark: listed apart in the source
Method in brief: as §2

[14] = test system: DU-4475; remark: listed apart in the source
Method in brief: as §2

[15] = test system: MDA-MB-231
Method in brief: as §2

[16] = test system: CAL-85-1; remark: listed apart in the source
Method in brief: as §2

[17] = test system: Hs578T; remark: listed apart in the source
Method in brief: as §2

[18] = test system: HCC1599
Method in brief: as §2

[19] = test system: CAL-51
Method in brief: as §2

[20] = test system: BT-474; remark: listed apart in the source
Method in brief: as §2

[21] = test system: MDA-MB-436; remark: listed apart in the source
Method in brief: as §2

[22] = test system: HDQ-P1
Method in brief: as §2

[23] = test system: BT-549
Method in brief: as §2

[24] = test system: SK-BR-3
Method in brief: as §2

[25] = test system: CAL-120; remark: listed apart in the source
Method in brief: as §2

[26] = test system: MDA-MB-453
Method in brief: as §2

[27] = test system: HCC1143
Method in brief: as §2

COc1ccc(-c2cc3c(C)nc(N)nc3n([C@H]3CC[C@H](OCCO)CC3)c2=O)cn1
Details	normalised viability [%]
[1], 100 nM	77.3
[2], 100 nM	68.8
[3], 100 nM	65.8
[4], 10 nM	103
[5], 10 nM	95.3
[6], 100 nM	60.5
[7], 100 nM	67.8
[8], 100 nM	80.6
[9], 100 nM	74.9
[10], 10 nM	92.7
[10], 1000 nM	21.5
[10], 10000 nM	6.53
[11], 10 nM	92
[11], 1000 nM	16
[11], 10000 nM	7.1
[12], 3 nM	87.6
[12], 30 nM	93
[12], 100 nM	78.6
[13], 10 nM	68.4
[13], 1000 nM	28
[13], 10000 nM	30.2
[14], 3 nM	109
[14], 30 nM	96.7
[14], 100 nM	89
[15], 10 nM	84.7
[15], 1000 nM	16.7
[15], 10000 nM	8.35
[16], 3 nM	102
[16], 30 nM	89.7
[16], 100 nM	84.5
[17], 10 nM	96.1
[17], 1000 nM	17.9
[17], 10000 nM	3.2
[18], 10 nM	115
[18], 1000 nM	35.1
[18], 10000 nM	28.2
[19], 3 nM	99.7
[19], 30 nM	89.1
[19], 100 nM	59
[20], 10 nM	91.8
[20], 1000 nM	14.1
[20], 10000 nM	0.59
[21], 10 nM	103
[21], 1000 nM	15.8
[21], 10000 nM	7.22
[22], 3 nM	76.7
[22], 30 nM	81.6
[22], 100 nM	39
[23], 10 nM	86.3
[23], 1000 nM	19.1
[23], 10000 nM	6.84
[24], 10 nM	82.6
[24], 1000 nM	10.6
[24], 10000 nM	6.34
[25], 10 nM	107
[25], 1000 nM	21
[25], 10000 nM	11.3
[26], 3 nM	103
[26], 30 nM	66.5
[26], 100 nM	48.5
[27], 10 nM	111
[27], 1000 nM	30.4
[27], 10000 nM	15

O=C1c2c(O)ccc(O)c2C(=O)c2c(NCCNCCO)ccc(NCCNCCO)c21 [Mitoxantrone]
Details	normalised viability [%]
[1], 10 nM	80.4
[2], 10 nM	85.9
[3], 10 nM	46.6
[4], 1 nM	102
[5], 1 nM	95.1
[6], 10 nM	71.8
[7], 10 nM	98.2
[8], 10 nM	99.6
[9], 10 nM	67.4
[10], 1 nM	97.1
[10], 100 nM	57.3
[10], 1000 nM	37.4
[11], 1 nM	73.8
[11], 100 nM	84.4
[11], 1000 nM	35.2
[12], 0.3 nM	91.2
[12], 3 nM	91.5
[12], 10 nM	57.9
[13], 1 nM	65.7
[13], 100 nM	25
[13], 1000 nM	23.7
[14], 0.3 nM	89
[14], 3 nM	91.3
[14], 10 nM	45.8
[15], 1 nM	82
[15], 100 nM	44.2
[15], 1000 nM	17.4
[16], 0.3 nM	90.3
[16], 3 nM	84.3
[16], 10 nM	86.5
[17], 1 nM	91.6
[17], 100 nM	77.5
[17], 1000 nM	38.4
[18], 1 nM	97.6
[18], 100 nM	73.3
[18], 1000 nM	69.8
[19], 0.3 nM	112
[19], 3 nM	111
[19], 10 nM	61.3
[20], 1 nM	99.4
[20], 100 nM	71.1
[20], 1000 nM	42
[21], 1 nM	87.2
[21], 100 nM	88.3
[21], 1000 nM	40.1
[22], 0.3 nM	74.8
[22], 3 nM	86.7
[22], 10 nM	79.2
[23], 1 nM	82.4
[23], 100 nM	69
[23], 1000 nM	35.4
[24], 1 nM	84.2
[24], 100 nM	34.6
[24], 1000 nM	14.8
[25], 1 nM	73.8
[25], 100 nM	44.6
[25], 1000 nM	17.3
[26], 0.3 nM	98.7
[26], 3 nM	87.1
[26], 10 nM	74
[27], 1 nM	83.4
[27], 100 nM	56.6
[27], 1000 nM	31.2
